Series [1] deals with cerebral ischemia-reperfusion rat models. Nature of the series: Cerebral ischemia-reperfusion (MCAO) rat model, different doses of YN17. The class given is in vivo, rats. Conditions: for Percentage of whole brain tissue infarction (%) / Symptom score: 3 mg/kg tail vein, Mean ± SD; for Percentage of whole brain tissue infarction (%): 24 h, TTC staining, model 17.61 ± 7.45; for Symptom score: 24 h after administration, 0-5 points, model 3.3 ± 0.7. As for the experimental part: Establishment of cerebral ischemia-reperfusion rat models. Rats were anesthetized with pentobarbital sodium (45 mg/kg), the neck skin was prepared, the surgical skin was disinfected with iodophor, the neck skin was cut in the middle, the neck muscles were separated, and the left common carotid artery (CCA) was separated until the branches of the internal carotid artery (ICA) and external carotid artery (ECA) were exposed. The proximal end of the common carotid artery was ligated, the distal end of the common carotid artery was clamped with an artery clip, an incision was made between the two ligated ends of the common carotid artery, the MCAO suture was inserted, and the suture was loosely ligated to the common carotid artery. The MCAO suture was inserted into the internal carotid artery, so that the suture reached the branches of the internal carotid artery to the middle cerebral artery (MCA), blocking the blood supply of the MCA and causing ischemia, the MCAO suture was fixed, and the surgical incision was sutured. After 1 h of ischemia, the MCAO suture was withdrawn into the common carotid artery to restore blood supply to the middle cerebral artery.
Drug administration. After the surgery, the rats were immediately injected with YN17 (5 mg/kg, 10 mg/kg and 20 mg/kg) via the tail vein, while the positive control group was injected with 3 mg/kg of edaravone via the tail vein. The rats were euthanized under anesthesia 24 hours after drug administration.
Animal neurobehavioral assessment. 24 hours after administration, the activity of the rats after landing was observed, and the behavior disorders of the rats were scored. The scoring method was as follows: • 0 points: no loss of neurological function and normal activity; • 1 point: failure to fully extend the left forepaw on the opposite side of the lesion; • 2 points: failure of the paralyzed side to resist the thrust from the opposite side; • 3 points: circling to the left side when crawling (tail-chasing sign); • 4 points: falling to the paralyzed side when shaking or walking; and • 5 points: trance or loss of consciousness.
Determination of the extent of cerebral infarction. The rats were euthanized under anesthesia 24 hours after drug administration. The brain was removed and rinsed with normal saline at 4° C. The brain was frozen at −80° C. for 10 min, and coronal slices with a thickness of 2 mm were cut from posterior to anterior, incubated in a 1% TTC solution for 10 min at 37° C., and fixed with formalin overnight after staining. The photos of the brain slices were taken and saved. The area of each brain slice and the area of the infarcted area were measured by Image Pro software, and the percentage of the area of focuses of infarct to the total area was calculated.

The subject of series [2] is cerebral ischemia-reperfusion in rats. As to the kind of experiment: Cerebral ischemia-reperfusion rat model, comparative test of calcium salt YN17 and sodium salt YN17-ST. Type of series: in vivo. The following applies: 10 mg/kg tail vein after 1 h ischemia; 24 h; Mean ± SEM; model 51.37 ± 2.66. As for the experimental part: Establishment of cerebral ischemia-reperfusion rat models. Rats were anesthetized with pentobarbital sodium (45 mg/kg), the neck skin was prepared, the surgical skin was disinfected with iodophor, the neck skin was cut in the middle, the neck muscles were separated, and the left common carotid artery (CCA) was separated until the branches of the internal carotid artery (ICA) and external carotid artery (ECA) were exposed. […]
Determination of the extent of cerebral infarction. […] The area of each brain slice and the area of the infarcted area were measured by Image Pro software, and the percentage of the area of focuses of infarct to the total area was calculated.
The models were established and administered according to the similar method described above (YN17 (10 mg/kg) and YN17-ST (10 mg/kg) were injected into the tail vein immediately after blood supply to the middle cerebral artery of the rats was restored, and 5% glucose was injected into the tail vein in the model group. The rats were euthanized under anesthesia 24 hours after drug administration, and the extent of cerebral infarction was measured. The results were as follows: […]

Series [3] can be described thus: Stability tests (accelerated and long-term) of salt and crystal forms. Conditions: for Relevant substance, Single impurity / Relevant substance, Total impurities / Content determination: HPLC; for Content determination: content of C27H32O16; for pH: solution 5 mg per 1 ml in water. Type of series: physicochemical. The method, then: The crystal form A for the stability data in the following table is prepared by the method of Example 1. The intermediate was adopted, water was used as a system, calcium carbonate was added for reaction, the solution was filtered and then allowed to stand for crystallization, and subjected to suction filtration, and the filter cake was washed with water and dried by suction, and dried under reduced pressure at 30° C. for 4-6 hours to obtain the crystal form A.
For stability tests and inspection methods, please see the attached stability solutions and quality standards.
[Character] Ocular estimate method: this sample was a yellow powder.
[Examination] PH value: this sample was taken and added with water to make a solution containing 5 mg per 1 ml. According to the pH value determination method (Chinese Pharmacopoeia 2020 Edition Fourth General Rule 0631), the pH value should be 5.0-7.0.
Relevant substances. Determination of relevant substances was performed according to high-performance liquid chromatography (Chinese Pharmacopoeia 2020 Edition Fourth General Rule 0512).
Test sample solution. An appropriate amount of this sample was taken, accurately weighed, dissolved by addition of a diluent, and diluted quantitatively to prepare a solution containing 1.0 mg per 1 ml. The solution was shaken well, filtered through a microporous filter membrane (0.45 μm), and the subsequent filtrate was taken.
Chromatographic conditions. Octadecylsilane bonded silica gel was used as a filler: […] potassium dihydrogen phosphate solution (1.36 g of potassium dihydrogen phosphate was taken into a 1000 mL measuring flask, dissolved by addition of water, and diluted to the scale) was used as a mobile phase A, methanol was used as a mobile phase B, and gradient elution was performed according to the following table; the detection wavelength was 375 nm; and the injection volume was 5 μl.
Limit If there were impurity peaks in the chromatogram of the test sample solution, the area of a single impurity peak shall not be greater than 0.005 times (0.5%) the total peak area, and the sum of the areas of each impurity peak shall not be greater than 0.015 times (1.5%) the total peak area. Chromatographic peaks less than 0.02% of the peak area of the main component can be ignored.
Water content This sample was taken, and according to the method for water content determination (Chinese Pharmacopoeia 2020 Edition Fourth General Rule 0832 First Method), the water content shall not exceed 15.0%.
Calcium element Determination of calcium element was performed according to inductively coupled plasma mass spectrometry (Chinese Pharmacopoeia 2020 Edition Fourth General Rule 0412).
[Content determination] Content determination was performed according to high-performance liquid chromatography (Chinese Pharmacopoeia 2020 Edition Fourth General Rule 0512).
Chromatographic conditions. Octadecylsilane bonded silica gel was used as a filler, methanol-acetonitrile-water-phosphoric acid (26:2:72:0.04) was used as a mobile phase, and detection wavelength was 403 nm; and the injection volume was 10 μl.
Determination method. The test sample solution and comparative sample solution were accurately measured, and injected into the liquid chromatograph separately, and the chromatogram was recorded. The content of C27H32O16 in the test sample was calculated by the peak area according to the external standard method.

[4] abbreviates: 3 mg/kg, 24 h after modeling, p<0.001.
Where [5] appears, read: Accelerated 6 months, 40° C. ± 2° C./75% ± 5% RH.
Where [6] appears, read: Long-term 6 months, 25° C. ± 2° C./60% ± 5% RH.

Several values for one entry are separate records, joined by “and”; a condition that tells them apart may be missing. Equal entries are not always repeated.

Results on two molecules are retold here after patent publication US20250304609A1, “POLYMORPHIC FORM OF CHALCONE GLYCOSIDE COMPOUND, AND PREPARATION METHOD AND APPLICATION THEREOF” (ZHEJIANG YONGNING PHARMACEUTICAL CO., LTD., priority 2022, published 2025).

In the case of `CC1=NN(c2ccccc2)C(=O)C1` [Edaravone, edaravone], in series [1], the “Percentage of whole brain tissue infarction (%)” value is 10.58 ± 5.31 % and the Symptom score was found to be 2.1 ± 1.3. For the same molecule, in series [1] (listed as edaravone), the “Percentage of whole brain tissue infarction (%)” value was “significantly inhibit” and the Symptom score entry was “significantly improve”. Besides, in series [1] (setting [4]), the “content of GSH-px in serum” value was “significantly increase” and the “content of SOD in serum” value is given as “significantly increase”.
For `O=C(C=Cc1ccc(O)cc1)C1=C(O)C(C2OC(CO)C(O)C(O)C2O)=C([O-])C(O)(C2OC(CO)C(O)C(O)C2O)C1=O.[Na+]` (stereo not shown) [YN17-ST], the “Percentage of hemispheric tissue infarction (%)” value in series [2] was 23.35% and 23.35 ± 7.37 %. For the same molecule, in series [3] (0 months), the Character entry is reported as “Yellow”; the Water content is 2.3%; the “Relevant substance, Single impurity” value amounted to 0.36%; the “Relevant substance, Total impurities” value is given as 0.95%. For the same molecule, in series [3] (0 months), the Content determination is on record as 95.3% and the pH came to 6.0. Moreover, in series [3] (setting [5]), the Character result is reported as “Yellow”; the Water content amounted to 7.3%; the “Relevant substance, Single impurity” value is listed as 6.41%; the “Relevant substance, Total impurities” value is recorded as 9.53%. In series [3] (setting [5]), the Content determination came to 81.5% and the pH is listed as 6.8. In addition, in series [3] (setting [6]), the Character result is listed as “Yellow”; the Water content came to 5.7%; the “Relevant substance, Single impurity” value is on record as 1.86%; the “Relevant substance, Total impurities” value amounted to 3.02%. Also, in series [3] (setting [6]), the Content determination is on record as 91.7% and the pH was 6.4.
